ChEMBL document CHEMBL3046771, “Synthesis, spectral, and antimicrobial evaluation of some new 8-membered phosphorus heterocyclic compounds” (2011)

Legend:
Format in all cases: functional
Helminthosporium [1] = experiment: Antifungal activity against Helminthosporium oryzae at 50 ppm by disc diffusion method; parameters: unit not given here
Escherichia coli [2] = experiment: Antibacterial activity against Escherichia coli at 100 ppm by disk diffusion method; parameters: unit not given here
Escherichia coli [3] = experiment: Antibacterial activity against Escherichia coli at 25 ppm by disk diffusion method; parameters: unit not given here
Aspergillus niger [4] = experiment: Antifungal activity against Aspergillus niger at 100 ppm by disk diffusion method; parameters: unit not given here
Escherichia coli [5] = experiment: Antibacterial activity against Escherichia coli at 50 ppm by disk diffusion method; parameters: unit not given here
Staphylococcus aureus [6] = experiment: Antibacterial activity against Staphylococcus aureus at 50 ppm by disk diffusion method
Aspergillus niger [7] = experiment: Antifungal activity against Aspergillus niger at 50 ppm by disk diffusion method; parameters: unit not given here
Aspergillus niger [8] = experiment: Antifungal activity against Aspergillus niger at 25 ppm by disk diffusion method; parameters: unit not given here
Helminthosporium [9] = experiment: Antifungal activity against Helminthosporium oryzae at 100 ppm by disc diffusion method; parameters: unit not given here
Staphylococcus aureus [10] = experiment: Antibacterial activity against Staphylococcus aureus at 100 ppm by disk diffusion method; parameters: unit not given here
Helminthosporium [11] = experiment: Antifungal activity against Helminthosporium oryzae at 25 ppm by disc diffusion method; parameters: unit not given here
Staphylococcus aureus [12] = experiment: Antibacterial activity against Staphylococcus aureus at 25 ppm by disk diffusion method; parameters: unit not given here

Which “inhibition zone (IZ)” value (Helminthosporium [1]) does the source give for `[Se]=P1(CBr)CNc2cccc3cccc(c23)NC1` here?
The value was 8.

What about the “inhibition zone (IZ)” value (Escherichia coli [2]) of the same molecule?
Its value is 12.

And the “inhibition zone (IZ)” value (Escherichia coli [3])?
Its value is 4.

And the “inhibition zone (IZ)” value (Aspergillus niger [4])?
The value was 10.

And the “inhibition zone (IZ)” value (Escherichia coli [5])?
The value was 6.

What about the “inhibition zone (IZ)” value (Staphylococcus aureus [6]) of the same molecule?
Its value is 8%.

And the “inhibition zone (IZ)” value (Aspergillus niger [7])?
The value was 6.

What about the “inhibition zone (IZ)” value (Aspergillus niger [8]) of the same molecule?
The value was 4.

What about the “inhibition zone (IZ)” value (Helminthosporium [9]) of the same molecule?
Its value is 9.

What about the “inhibition zone (IZ)” value (Staphylococcus aureus [10]) of the same molecule?
The value was 9.

With `CCC(C)OCP1(=S)CNc2cccc3cccc(c23)NC1` (centres undefined) as the molecule, how does the “inhibition zone (IZ)” value (Helminthosporium [1]) read?
Its value is 12.

What about the “inhibition zone (IZ)” value (Escherichia coli [2]) of the same molecule?
The value was 14.

And the “inhibition zone (IZ)” value (Escherichia coli [3])?
The value was 9.

What about the “inhibition zone (IZ)” value (Aspergillus niger [4]) of the same molecule?
The value was 14.

What about the “inhibition zone (IZ)” value (Escherichia coli [5]) of the same molecule?
The value was 10.

What about the “inhibition zone (IZ)” value (Staphylococcus aureus [6]) of the same molecule?
Its value is 12%.

And the “inhibition zone (IZ)” value (Aspergillus niger [7])?
The value was 10.

And the “inhibition zone (IZ)” value (Helminthosporium [11])?
Its value is 8.

And the “inhibition zone (IZ)” value (Aspergillus niger [8])?
The value was 9.

What about the “inhibition zone (IZ)” value (Helminthosporium [9]) of the same molecule?
The value was 13.

What about the “inhibition zone (IZ)” value (Staphylococcus aureus [12]) of the same molecule?
Its value is 8.

What about the “inhibition zone (IZ)” value (Staphylococcus aureus [10]) of the same molecule?
Its value is 13.

With `CC(Cc1ccccc1)OCP1(=S)CNc2cccc3cccc(c23)NC1` (centres undefined) as the molecule, how does the “inhibition zone (IZ)” value (Helminthosporium [1]) read?
Its value is 9.

And the “inhibition zone (IZ)” value (Escherichia coli [2])?
Its value is 8.

What about the “inhibition zone (IZ)” value (Escherichia coli [3]) of the same molecule?
The value was 8.

What about the “inhibition zone (IZ)” value (Aspergillus niger [4]) of the same molecule?
Its value is 13.

And the “inhibition zone (IZ)” value (Escherichia coli [5])?
Its value is 9.

And the “inhibition zone (IZ)” value (Staphylococcus aureus [6])?
The value was 9%.

What about the “inhibition zone (IZ)” value (Aspergillus niger [7]) of the same molecule?
The value was 9.

And the “inhibition zone (IZ)” value (Helminthosporium [11])?
Its value is 7.

What about the “inhibition zone (IZ)” value (Aspergillus niger [8]) of the same molecule?
Its value is 8.

What about the “inhibition zone (IZ)” value (Helminthosporium [9]) of the same molecule?
The value was 10.

What about the “inhibition zone (IZ)” value (Staphylococcus aureus [12]) of the same molecule?
Its value is 7.

And the “inhibition zone (IZ)” value (Staphylococcus aureus [10])?
The value was 10.

For `CCC(CO)NCP1(=S)CNc2cccc3cccc(c23)NC1` (centres undefined), which “inhibition zone (IZ)” value (Helminthosporium [1]) is on record?
Its value is 9.

What about the “inhibition zone (IZ)” value (Escherichia coli [2]) of the same molecule?
Its value is 10.

What about the “inhibition zone (IZ)” value (Escherichia coli [3]) of the same molecule?
The value was 8.

What about the “inhibition zone (IZ)” value (Aspergillus niger [4]) of the same molecule?
Its value is 10.

What about the “inhibition zone (IZ)” value (Escherichia coli [5]) of the same molecule?
Its value is 10.

And the “inhibition zone (IZ)” value (Staphylococcus aureus [6])?
The value was 9%.

And the “inhibition zone (IZ)” value (Aspergillus niger [7])?
The value was 10.

And the “inhibition zone (IZ)” value (Helminthosporium [11])?
Its value is 5.

And the “inhibition zone (IZ)” value (Aspergillus niger [8])?
The value was 8.

What about the “inhibition zone (IZ)” value (Helminthosporium [9]) of the same molecule?
The value was 11.

What about the “inhibition zone (IZ)” value (Staphylococcus aureus [12]) of the same molecule?
The value was 5.

What about the “inhibition zone (IZ)” value (Staphylococcus aureus [10]) of the same molecule?
The value was 11.

Which “inhibition zone (IZ)” value (Helminthosporium [1]) does the source give for `CC(NCP1(=S)CNc2cccc3cccc(c23)NC1)c1ccccc1` (centres undefined) here?
Its value is 7.

What about the “inhibition zone (IZ)” value (Escherichia coli [2]) of the same molecule?
The value was 11.

What about the “inhibition zone (IZ)” value (Escherichia coli [3]) of the same molecule?
Its value is 6.

What about the “inhibition zone (IZ)” value (Aspergillus niger [4]) of the same molecule?
The value was 9.

What about the “inhibition zone (IZ)” value (Escherichia coli [5]) of the same molecule?
The value was 7.

What about the “inhibition zone (IZ)” value (Staphylococcus aureus [6]) of the same molecule?
Its value is 7%.

What about the “inhibition zone (IZ)” value (Aspergillus niger [7]) of the same molecule?
Its value is 7.

What about the “inhibition zone (IZ)” value (Helminthosporium [11]) of the same molecule?
The value was 8.

What about the “inhibition zone (IZ)” value (Aspergillus niger [8]) of the same molecule?
Its value is 6.

What about the “inhibition zone (IZ)” value (Helminthosporium [9]) of the same molecule?
The value was 12.

And the “inhibition zone (IZ)” value (Staphylococcus aureus [12])?
Its value is 8.

What about the “inhibition zone (IZ)” value (Staphylococcus aureus [10]) of the same molecule?
The value was 12.

What does the source list for `CCC(C)OCP1(=[Se])CNc2cccc3cccc(c23)NC1` (centres undefined)?
inhibition zone (IZ) (Helminthosporium [1]): 10; inhibition zone (IZ) (Escherichia coli [2]): 13; inhibition zone (IZ) (Escherichia coli [3]): 8; inhibition zone (IZ) (Aspergillus niger [4]): 13; inhibition zone (IZ) (Escherichia coli [5]): 10; inhibition zone (IZ) (Staphylococcus aureus [6]): 10%; inhibition zone (IZ) (Aspergillus niger [7]): 10; inhibition zone (IZ) (Helminthosporium [11]): 7; inhibition zone (IZ) (Aspergillus niger [8]): 8; inhibition zone (IZ) (Helminthosporium [9]): 14; inhibition zone (IZ) (Staphylococcus aureus [12]): 7; inhibition zone (IZ) (Staphylococcus aureus [10]): 14

With `CC(Cc1ccccc1)OCP1(=[Se])CNc2cccc3cccc(c23)NC1` (centres undefined) as the molecule, how does the “inhibition zone (IZ)” value (Helminthosporium [1]) read?
The value was 10.

What about the “inhibition zone (IZ)” value (Escherichia coli [2]) of the same molecule?
The value was 10.

And the “inhibition zone (IZ)” value (Escherichia coli [3])?
The value was 7.

And the “inhibition zone (IZ)” value (Aspergillus niger [4])?
The value was 10.

What about the “inhibition zone (IZ)” value (Escherichia coli [5]) of the same molecule?
Its value is 8.

And the “inhibition zone (IZ)” value (Staphylococcus aureus [6])?
Its value is 10%.

What about the “inhibition zone (IZ)” value (Aspergillus niger [7]) of the same molecule?
Its value is 8.

And the “inhibition zone (IZ)” value (Helminthosporium [11])?
The value was 7.

And the “inhibition zone (IZ)” value (Aspergillus niger [8])?
Its value is 7.

And the “inhibition zone (IZ)” value (Helminthosporium [9])?
The value was 12.

What about the “inhibition zone (IZ)” value (Staphylococcus aureus [12]) of the same molecule?
Its value is 7.

What about the “inhibition zone (IZ)” value (Staphylococcus aureus [10]) of the same molecule?
The value was 12.

For `CCC(CO)NCP1(=[Se])CNc2cccc3cccc(c23)NC1` (centres undefined), which “inhibition zone (IZ)” value (Helminthosporium [1]) is on record?
Its value is 9.

What about the “inhibition zone (IZ)” value (Escherichia coli [2]) of the same molecule?
Its value is 19.

What about the “inhibition zone (IZ)” value (Escherichia coli [3]) of the same molecule?
The value was 7.

And the “inhibition zone (IZ)” value (Aspergillus niger [4])?
Its value is 9.

And the “inhibition zone (IZ)” value (Escherichia coli [5])?
Its value is 6.

What about the “inhibition zone (IZ)” value (Staphylococcus aureus [6]) of the same molecule?
Its value is 6%.

What about the “inhibition zone (IZ)” value (Aspergillus niger [7]) of the same molecule?
The value was 6.

And the “inhibition zone (IZ)” value (Helminthosporium [11])?
The value was 6.

And the “inhibition zone (IZ)” value (Aspergillus niger [8])?
The value was 4.

What about the “inhibition zone (IZ)” value (Helminthosporium [9]) of the same molecule?
Its value is 10.

And the “inhibition zone (IZ)” value (Staphylococcus aureus [12])?
Its value is 8.

What about the “inhibition zone (IZ)” value (Staphylococcus aureus [10]) of the same molecule?
The value was 10.

`CC(NCP1(=[Se])CNc2cccc3cccc(c23)NC1)c1ccccc1` (centres undefined) was tested. Which “inhibition zone (IZ)” value (Helminthosporium [1]) did it give?
The value was 8.

And the “inhibition zone (IZ)” value (Escherichia coli [2])?
Its value is 10.

And the “inhibition zone (IZ)” value (Escherichia coli [3])?
The value was 3.

What about the “inhibition zone (IZ)” value (Aspergillus niger [4]) of the same molecule?
The value was 12.

And the “inhibition zone (IZ)” value (Escherichia coli [5])?
The value was 5.

And the “inhibition zone (IZ)” value (Staphylococcus aureus [6])?
The value was 9%.

What about the “inhibition zone (IZ)” value (Aspergillus niger [7]) of the same molecule?
Its value is 9.

What about the “inhibition zone (IZ)” value (Helminthosporium [11]) of the same molecule?
Its value is 5.

What about the “inhibition zone (IZ)” value (Aspergillus niger [8]) of the same molecule?
Its value is 6.

What about the “inhibition zone (IZ)” value (Helminthosporium [9]) of the same molecule?
The value was 9.

What about the “inhibition zone (IZ)” value (Staphylococcus aureus [12]) of the same molecule?
The value was 5.

What about the “inhibition zone (IZ)” value (Staphylococcus aureus [10]) of the same molecule?
Its value is 11.

Which “inhibition zone (IZ)” value (Helminthosporium [1]) does the source give for `S=P1(CBr)CNc2cccc3cccc(c23)NC1` here?
Its value is 11.

What about the “inhibition zone (IZ)” value (Escherichia coli [2]) of the same molecule?
The value was 10.

What about the “inhibition zone (IZ)” value (Escherichia coli [3]) of the same molecule?
The value was 3.

What about the “inhibition zone (IZ)” value (Aspergillus niger [4]) of the same molecule?
Its value is 9.

What about the “inhibition zone (IZ)” value (Escherichia coli [5]) of the same molecule?
Its value is 5.

And the “inhibition zone (IZ)” value (Staphylococcus aureus [6])?
The value was 11%.

And the “inhibition zone (IZ)” value (Aspergillus niger [7])?
The value was 5.

What about the “inhibition zone (IZ)” value (Helminthosporium [11]) of the same molecule?
The value was 9.

What about the “inhibition zone (IZ)” value (Aspergillus niger [8]) of the same molecule?
The value was 3.

And the “inhibition zone (IZ)” value (Helminthosporium [9])?
Its value is 13.

What about the “inhibition zone (IZ)” value (Staphylococcus aureus [12]) of the same molecule?
The value was 9.

And the “inhibition zone (IZ)” value (Staphylococcus aureus [10])?
Its value is 13.

Which “inhibition zone (IZ)” value (Staphylococcus aureus [6]) does the source give for `CC1(C)S[C@@H]2[C@H](NC(=O)Cc3ccccc3)C(=O)N2[C@H]1C(=O)O` [PENICILLIN G] here?
Its value is 8%.
